The source of these data is US6835536B2, “Antimicrobial cationic peptides and formulations thereof” (Micrologix Biotech Inc., priority 2001, dated 2004).

What all share (experiment): Agarose dilution MIC assay
Common to all, as to type: cell-based

Experiment [1] has as its system S. maltophilia. The note with it: S. maltophilia strain SMA002. The source says: (§1) The agarose dilution assay measures antimicrobial activity of peptides and peptide analogues. The activity is expressed as the minimum inhibitory concentration (MIC) in μg/ml of the peptide.
(§2) In order to mimic in vivo conditions, calcium and magnesium supplemented Mueller Hinton broth is used in combination with a low EEO agarose as the bacterial growth medium. Agarose, rather than agar, is used as the charged groups in agar prevent peptide diffusion through the medium. The medium is autoclaved, then cooled to 50-55° C. in a water bath before aseptic addition of a peptide solution. The same volume of different concentrations of peptide solution is added to the cooled, molten agarose that is then poured into a petri plate to a depth of 3-4 mm and allowed to solidify.
(§3) The bacterial inoculum is adjusted to a 0.5 McFarland turbidity standard (PML Microbiological) and then diluted 1:10 before application on to the agarose plate. The final inoculum applied to the agarose is approximately 10^4 CFU in a 5-8 mm diameter spot. The agarose plates are incubated at 35-37° C. for 16 to 20 hours.

Experiment [2] has as its system E. faecalis. The note with it: E. faecalis strain EFS001.
Description: as §1, §2, §3

In experiment [3] the test system is E. cloacae. The note with it: E. cloacae strain ECL007.
Description: as §1, §2, §3

Experiment [4] deals with S. pneumoniae. The settings on record: S. pneumoniae strain SPN002.
Description: as §1, §2, §3

Experiment [5] deals with C. albicans. The note with it: C. albicans strain CAL002; agarose dilution.
Description: as §1, §2, §3

Experiment [6] deals with P. aeruginosa. The settings on record: P. aeruginosa strain PAE004; agarose dilution.
Description: as §1, §2, §3

The subject of experiment [7] is S. epidermidis. The settings on record: S. epidermidis strain SEP010; agarose dilution.
Description: as §1, §2, §3

Experiment [8] has as its system S. pyogenes. The note with it: S. pyogenes strain SPY001.
Description: as §1, §2, §3

For experiment [9], the system named is S. mitis. The settings on record: S. mitis strain SMT014.
Description: as §1, §2, §3

For experiment [10], the system named is E. coli. The settings on record: E. coli strain ECO005.
Description: as §1, §2, §3

For experiment [11], the system named is S. marcescens. The note with it: S. marcescens strain SMS003.
Description: as §1, §2, §3

Experiment [12] relates to K. pneumoniae. The note with it: K. pnenmoniae strain KPN001.
Description: as §1, §2, §3

The test system of experiment [13] is C. neoformans. The note with it: C. neoformans strain CNE001.
Description: as §1, §2, §3

Experiment [14] deals with A. calcoaceticus. The settings on record: A. calcoaceticus strain ACA002.
Description: as §1, §2, §3

Experiment [15] has as its system C. jeikeium. The settings on record: C. jeikeium strain CJK005.
Description: as §1, §2, §3

For experiment [16], the system named is S. aureus. The settings on record: S. aureus strain SAU014; agarose dilution.
Description: as §1, §2, §3

With “i L K K W P W W P W R R k [Peptide 11E3CN]”, the “Minimum Inhibitory Concentration” value in experiment [1] was 64 µg/mL; in experiment [2], 64 µg/mL; in [3] it was over 128 µg/mL; in [4], 4 µg/mL; in experiment [5] it was 32 µg/mL; in [6] it was 64 µg/mL. The “Minimum Inhibitory Concentration” value is 4 µg/mL in [7]; 1 µg/mL in experiment [8]; 2 µg/mL in [9]; 8 µg/mL in experiment [10]; over 128 µg/mL in [11]; 32 µg/mL in [12]. The “Minimum Inhibitory Concentration” value in experiment [13] was 4 µg/mL; in experiment [14] it was 4 µg/mL; in experiment [15], 0.5 µg/mL; in [16] it was 8 µg/mL.
Take r L W V W W V W R R [Peptide 11F67CN]: the “Minimum Inhibitory Concentration” value in experiment [1] was found to be 2 µg/mL; in [2] it was 4 µg/mL; in experiment [3], 32 µg/mL; in experiment [4], 2 µg/mL; in [5], 32 µg/mL; in experiment [6] it was 16 µg/mL. Also, the “Minimum Inhibitory Concentration” value in experiment [7] was 1 µg/mL; in [8], 1 µg/mL; in experiment [9], 1 µg/mL; in experiment [10] it was 2 µg/mL; in experiment [11], over 128 µg/mL; in [12], 2 µg/mL. Also, the “Minimum Inhibitory Concentration” value in [13] was 8 µg/mL; in experiment [14], 2 µg/mL; in experiment [15], 0.5 µg/mL; in experiment [16], 2 µg/mL.
For R L W V W W V W R r [Peptide 11F68CN], the “Minimum Inhibitory Concentration” value turned out to be 2 µg/mL in experiment [1]; 2 µg/mL in experiment [2]; 32 µg/mL in experiment [3]; 2 µg/mL in experiment [4]; 32 µg/mL in [5]; 32 µg/mL in experiment [6]. The “Minimum Inhibitory Concentration” value in [7] is 1 µg/mL; in experiment [8], 1 µg/mL; in experiment [9] it was 1 µg/mL; in [10], 2 µg/mL; in experiment [11] it was over 128 µg/mL; in [12], 2 µg/mL. Also, the “Minimum Inhibitory Concentration” value in [13] was 8 µg/mL; in experiment [14] it was 1 µg/mL; in experiment [15], 0.5 µg/mL; in experiment [16] it was 2 µg/mL.
On to R L V V W W V V R R [Peptide 11F63CN], for which the “Minimum Inhibitory Concentration” value in experiment [1] stood at 0.5 µg/mL; in experiment [2] it was 4 µg/mL; in experiment [3], 16 µg/mL; in experiment [4], 4 µg/mL; in experiment [5] it was 16 µg/mL; in [6] it was 8 µg/mL. Also, the “Minimum Inhibitory Concentration” value in experiment [7] was 1 µg/mL; in experiment [8], 1 µg/mL; in [9], 2 µg/mL; in [10] it was 2 µg/mL; in experiment [11], over 128 µg/mL; in experiment [12], 4 µg/mL. Also, the “Minimum Inhibitory Concentration” value in [13] was 8 µg/mL; in experiment [14], 2 µg/mL; in experiment [15] it was 1 µg/mL; in experiment [16] it was 2 µg/mL.
“I L K W V W W V W R R K [Peptide 11B36CN]”: the “Minimum Inhibitory Concentration” value was found to be 8 µg/mL in [1]; 16 µg/mL in experiment [2]; 64 µg/mL in [3]; 4 µg/mL in experiment [4]; 8 µg/mL in [5]; 32 µg/mL in experiment [6]. Besides, the “Minimum Inhibitory Concentration” value is 2 µg/mL in experiment [7]; 2 µg/mL in [8]; 2 µg/mL in experiment [9]; 8 µg/mL in [10]; over 128 µg/mL in experiment [11]; 8 µg/mL in [12]. For the same substance, the “Minimum Inhibitory Concentration” value in experiment [13] was 16 µg/mL; in experiment [14], 2 µg/mL; in experiment [15], 1 µg/mL; in experiment [16], 2 µg/mL.
